Series [1] can be described thus: Lipophilicity, logD of compound at pH 7.4 by HPLC analysis. The conditions noted are these: buffer. Type of series: physicochemical.
A short description of series [2]: Solubility of compound in 0.01 M HCl at pH 2.0 by nephelometry. Type of series: physicochemical.
Series [3] in a line: Solubility of compound in phosphate buffer at pH 6.5 by nephelometry. In kind it is physicochemical.
Series [4] in a line: Intrinsic clearance in human liver microsomes.
Series [5] is described as follows: Intrinsic clearance in mouse liver microsomes.
The test system of series [6] is Schistosoma mansoni. The experiment in a line: Anti-schistosomal activity against newly transformed Schistosoma mansoni assessed as parasite viability at 10 uM measured after 3 days relative to control. In kind it is functional. The following applies: time 3 day.
The subject of series [7] is Schistosoma mansoni. The experiment in a line: Anti-schistosomal activity against adult Schistosoma mansoni assessed as parasite viability at 10 uM measured after 3 days relative to control. In kind it is functional. The conditions noted are these: time 3 day.
Series [8] can be described thus: Cytotoxicity against rat L6 cells. In kind it is toxicity, cell-based.
Series [9] can be described thus: Half life in Swiss mouse at 100 mg/kg, po measured upto 48 hrs by LC-MS analysis. In kind it is ADME, organism-based. The following applies: in vivo.
The nature of series [10]: AUC (0 to 24 hrs) in Swiss mouse at 100 mg/kg, po measured upto 48 hrs by LC-MS analysis. In kind it is ADME, organism-based. The following applies: in vivo.
Series [11] can be described thus: Cmax in Swiss mouse at 100 mg/kg, po measured upto 48 hrs by LC-MS analysis. In kind it is ADME, organism-based. The conditions noted are these: in vivo.
In series [12] the test system is Schistosoma mansoni. The experiment in a line: Ex vivo anti-schistosomal activity against adult Schistosoma mansoni assessed as inhibition of parasite viability measured after 3 days. In kind it is functional, organism-based. The conditions noted are these: 72 h.

Converted amounts (≈) assume the structure as drawn.

The record followed here is ChEMBL document CHEMBL6071177, “Medium-Ring Keto Bislactams with Antischistosomal Activity” (J Med Chem, 2024).

`O=C1CCN2C(=O)c3ccccc3C2C(=O)Nc2ccccc21` (stereo not given): in series [1], the log distribution coefficient (logD) was found to be 1.2. In addition, the kinetic solubility is 160 µM (≈ 49 µg/mL) in series [2] and over 320 µM in series [3]. Further, the CLH amounted to 27 µL/min/mg in series [4] and 84 µL/min/mg in series [5]. For the same compound, the Activity in [6] was determined as 51%; in series [7], 61%. The IC50 in series [8] is over 330 µM; in [12] it was 2.5 µM. In series [9], this compound returned a t1/2 of 4.4 h. The AUC in [10] was found to be 0.81 µg·h/mL. The compound also had a Cmax in series [11] of 0.189 µg/mL.

`O=C1CCN2C(=O)c3cc4ccccc4cc3C2C(=O)Nc2ccccc21` (stereo not given) registered a logD in series [1] of 2.3. In addition, the kinetic solubility in series [2] and in series [3] was over 320 µM in each case. For the same compound, the CLH in [4] is 97.4 µL/min/mg; in series [5], 212 µL/min/mg. Besides, the Activity in series [6] came out at 48%; in series [7], 40%. Half-maximal inhibition in [8] (IC50) was put at 98 µM.
